Measured values taken from patent US6358886B1, “6-Substituted 2,4-diamino-1,3,5-triazine derivatives having at least two asymmetrically substituted carbon atoms, the production thereof, and their use as herbicides” (Bayer Aktienegesellschaft, priority 1998, dated 2002).

Tests used:
Format in all cases: in vivo
Abutilon [1] = assay: Pre-emergence test/greenhouse; conditions: after three weeks
Description: (§1) Solvent: 5 parts by weight of acetone
(§2) Emulsifier: 1 part by weight of alkylaryl polyglycol ether
(§3) To produce a suitable preparation of active compound, 1 part by weight of active compound is mixed with the stated amount of solvent, the stated amount of emulsifier is added and the concentrate is diluted with water to the desired concentration.
(§4) Seeds of the test plants are sown in normal soil. After about 24 hours, the soil is sprayed with the preparation of active compound such that the particular amounts of active compound desired are applied per unit area. The concentration of the spray liquor is chosen so that the particular amounts of active compound desired are applied in 1000 l of water/ha.
(§5) After three weeks, the degree of damage to the plants is rated in % damage in comparison to the development of the untreated control.
(§6) 0%=no effect (like untreated control)

Alopecurus = assay: Pre-emergence test/greenhouse; conditions: after three weeks
Description: as §1, §2, §3, §4, §5, §6

Amaranthus [2] = assay: Pre-emergence test/greenhouse; conditions: after three weeks
Description: as §1, §2, §3, §4, §5, §6

Maize = assay: Pre-emergence test/greenhouse; conditions: after three weeks, crop plant
Description: as §1, §2, §3, §4, §5, §6

Setaria [3] = assay: Pre-emergence test/greenhouse; conditions: after three weeks
Description: as §1, §2, §3, §4, §5, §6

Galium = assay: Pre-emergence test/greenhouse; conditions: after three weeks
Description: as §1, §2, §3, §4, §5, §6

Sinapis [4] = assay: Pre-emergence test/greenhouse; conditions: after three weeks
Description: as §1, §2, §3, §4, §5, §6

Abutilon [5] = assay: Post-emergence test/greenhouse; conditions: after three weeks
Description: as §1, §2, §3
as §4, with “Test plants which have a height” for “Seeds”, “5-15 cm” for “the test plants”, “are” for “are sown in normal soil. After about 24 hours, the soil is”
as §5, §6

Amaranthus [6] = assay: Post-emergence test/greenhouse; conditions: after three weeks
Description: as §1, §2, §3
as §4, with “Test plants which have a height” for “Seeds”, “5-15 cm” for “the test plants”, “are” for “are sown in normal soil. After about 24 hours, the soil is”
as §5, §6

Setaria [7] = assay: Post-emergence test/greenhouse
Description: as §1, §2, §3
as §4, with “Test plants which have a height” for “Seeds”, “5-15 cm” for “the test plants”, “are” for “are sown in normal soil. After about 24 hours, the soil is”
as §5, §6

Xanthium = assay: Post-emergence test/greenhouse; conditions: after three weeks
Description: as §1, §2, §3
as §4, with “Test plants which have a height” for “Seeds”, “5-15 cm” for “the test plants”, “are” for “are sown in normal soil. After about 24 hours, the soil is”
as §5, §6

weeds [8] = assay: Post-emergence test; conditions: result in words
Description: as §1, §2, §3
as §4, with “Test plants which have a height” for “Seeds”, “5-15 cm” for “the test plants”, “are” for “are sown in normal soil. After about 24 hours, the soil is”
as §5, §6

weeds [9] = assay: Pre-emergence test; conditions: result in words
Description: as §1, §2, §3, §4, §5, §6

[10] = tested on: crop plants, such as, for example, sunflowers; assay: Pre-emergence test, crop tolerance; conditions: result in words
Description: as §1, §2, §3, §4, §5, §6

Sinapis [11] = assay: Post-emergence test/greenhouse; conditions: Table A-3, 1000 g of ai./ha, after three weeks
Description: as §1, §2, §3
as §4, with “Test plants which have a height” for “Seeds”, “5-15 cm” for “the test plants”, “are” for “are sown in normal soil. After about 24 hours, the soil is”
as §5, §6

[12] = Table A-3, 1000 g of ai./ha, after three weeks

Structure (SMILES): CCC(COc1cc(C)cc(C)c1)Nc1nc(N)nc([C@@H](C)O)n1 (mixture of isomers) [Example 2]
- degree of damage, Abutilon (Abutilon [1]; Table B-2, 1000 g of ai./ha): 100%
- degree of damage, Alopecurus (Alopecurus; Table B-2, 1000 g of ai./ha): 100%
- degree of damage, Amaranthus (Amaranthus [2]; Table B-2, 1000 g of ai./ha): 80%
- degree of damage, Maize (Maize; Table B-2, 1000 g of ai./ha): 20%
- degree of damage, Setaria (Setaria [3]; Table B-2, 1000 g of ai./ha): 100%

Structure (SMILES): CCC(COc1cc(C)cc(C)c1)Nc1nc(N)nc([C@H](C)O)n1 (mixture of isomers) [Example 3]
- degree of damage, Abutilon (Abutilon [1]; Table B-3, 2000 g of ai./ha): 100%
- degree of damage, Amaranthus (Amaranthus [2]; Table B-3, 2000 g of ai./ha): 100%
- degree of damage, Galium (Galium; Table B-3, 2000 g of ai./ha): 100%
- degree of damage, Setaria (Setaria [3]; Table B-3, 2000 g of ai./ha): 100%
- degree of damage, Sinapis (Sinapis [4]; Table B-3, 2000 g of ai./ha): 100%

Structure (SMILES): CCC(COc1cc(C)cc(C)c1)Nc1nc(N)nc([C@H](C)Cl)n1 (mixture of isomers) [Example 4]
- degree of damage, Abutilon (Abutilon [1]; Table B-3, 2000 g of ai./ha): 100%
- degree of damage, Alopecurus (Alopecurus; Table B-3, 2000 g of ai./ha): 100%
- degree of damage, Amaranthus (Amaranthus [2]; Table B-3, 2000 g of ai./ha): 95%
- degree of damage, Galium (Galium; Table B-3, 2000 g of ai./ha): 100%
- degree of damage, Setaria (Setaria [3]; Table B-3, 2000 g of ai./ha): 100%
- degree of damage, Sinapis (Sinapis [4]; Table B-3, 2000 g of ai./ha): 100%

Structure (SMILES): CCC(COc1cc(C)cc(C)c1)Nc1nc(N)nc([C@@H](C)Cl)n1 (mixture of isomers) [Example 5]
- degree of damage, Abutilon (Abutilon [1]; Table B-1, 1000 g of ai./ha): 100%
- degree of damage, Galium (Galium; Table B-1, 1000 g of ai./ha): 100%
- degree of damage, Maize (Maize; Table B-1, 1000 g of ai./ha): 20%
- degree of damage, Setaria (Setaria [3]; Table B-1, 1000 g of ai./ha): 100%

Structure (SMILES): CCC(COc1ccccc1)Nc1nc(N)nc([C@H](C)Cl)n1 (mixture of isomers) [Example 7]
- degree of damage, Abutilon (Abutilon [1]; Table B-3, 1000 g of ai./ha): 100%
- degree of damage, Alopecurus (Alopecurus; Table B-3, 1000 g of ai./ha): 95%
- degree of damage, Amaranthus (Amaranthus [2]; Table B-3, 1000 g of ai./ha): 100%
- degree of damage, Galium (Galium; Table B-3, 1000 g of ai./ha): 100%
- degree of damage, Setaria (Setaria [3]; Table B-3, 1000 g of ai./ha): 95%
- degree of damage, Sinapis (Sinapis [4]; Table B-3, 1000 g of ai./ha): 100%

Structure (SMILES): CCC(=O)Nc1nc(NC(CC)COc2ccccc2)nc([C@H](C)Cl)n1 (mixture of isomers) [Example 9]
- degree of damage, Abutilon (Abutilon [1]; Table B-2, 1000 g of ai./ha): 95%
- degree of damage, Alopecurus (Alopecurus; Table B-2, 1000 g of ai./ha): 95%
- degree of damage, Amaranthus (Amaranthus [2]; Table B-2, 1000 g of ai./ha): 100%
- degree of damage, Maize (Maize; Table B-2, 1000 g of ai./ha): 20%
- degree of damage, Sinapis (Sinapis [4]; Table B-2, 1000 g of ai./ha): 100%

Structure (SMILES): CCC(CCc1ccsc1)Nc1nc(N)nc([C@H](C)Cl)n1 (mixture of isomers) [Example 15]
- degree of damage, Abutilon (Abutilon [1]; Table B-3, 1000 g of ai./ha): 100%
- degree of damage, Alopecurus (Alopecurus; Table B-3, 1000 g of ai./ha): 100%
- degree of damage, Amaranthus (Amaranthus [2]; Table B-3, 1000 g of ai./ha): 100%
- degree of damage, Galium (Galium; Table B-3, 1000 g of ai./ha): 100%
- degree of damage, Setaria (Setaria [3]; Table B-3, 1000 g of ai./ha): 100%
- degree of damage, Sinapis (Sinapis [4]; Table B-3, 1000 g of ai./ha): 100%

Structure (SMILES): C[C@H](Nc1nc(N)nc([C@@H](C)O)n1)c1ccccc1 [Example 1, 2-amino-4-(R)-(1-hydroxyethyl)-6-(S)-(1-phenyl-ethylamino)-1,3,5-triazine]
- degree of damage, Abutilon (Abutilon [5]; Table A-1, 1000 g of ai./ha): 80%
- degree of damage, Amaranthus (Amaranthus [6]; Table A-1, 1000 g of ai./ha): 100%
- degree of damage, Setaria (Setaria [7]; Table A-1, 1000 g of ai./ha, rated after three weeks, 0%=no effect, 100%=total destruction): 90%
- degree of damage, Xanthium (Xanthium; Table A-1, 1000 g of ai./ha): 95%
- activity against weeds (weeds [8]): strong activity
- activity against weeds (weeds [9]): strong activity
- tolerance by crop plants [10]: tolerated well

Structure (SMILES): C[C@H](Nc1nc(N)nc([C@@H](C)Cl)n1)c1ccccc1 [Example 18]
- degree of damage, Abutilon (Abutilon [5]; Table A-3, 1000 g of ai./ha): 100%
- degree of damage, Amaranthus (Amaranthus [6]; Table A-3, 1000 g of ai./ha): 100%
- degree of damage, Setaria (Setaria [7]; [12]): 100%
- degree of damage, Sinapis (Sinapis [11]): 100%
- degree of damage, Xanthium (Xanthium; Table A-3, 1000 g of ai./ha): 100%
- activity against weeds (weeds [8]): strong activity

Structure (SMILES): CC[C@H](Nc1nc(N)nc([C@H](C)Cl)n1)c1ccccc1 [Example 22]
- degree of damage, Abutilon (Abutilon [5]; Table A-3, 1000 g of ai./ha): 95%
- degree of damage, Amaranthus (Amaranthus [6]; Table A-3, 1000 g of ai./ha): 100%
- degree of damage, Setaria (Setaria [7]; [12]): 95%
- degree of damage, Sinapis (Sinapis [11]): 100%
- degree of damage, Xanthium (Xanthium; Table A-3, 1000 g of ai./ha): 100%
- activity against weeds (weeds [8]): strong activity

Structure (SMILES): CC[C@H](Nc1nc(N)nc([C@@H](C)Cl)n1)c1ccccc1 [Example 23]
- degree of damage, Abutilon (Abutilon [5]; Table A-3, 1000 g of ai./ha): 95%
- degree of damage, Amaranthus (Amaranthus [6]; Table A-3, 1000 g of ai./ha): 100%
- degree of damage, Setaria (Setaria [7]; [12]): 80%
- degree of damage, Sinapis (Sinapis [11]): 100%
- degree of damage, Xanthium (Xanthium; Table A-3, 1000 g of ai./ha): 100%
- activity against weeds (weeds [8]): strong activity
